Data taken from US8791155B2, “Chroman derivatives” (Edison Pharmaceuticals, Inc., priority 2003, dated 2014).

What follows are compounds tested on dopaminergic neuronal cell line (assay: High glutamate-induced oxidative stress assay (HGOS)). Conditions: Mus musculus; 30 mM glutamate, 16 hrs; read-out: EC50, protection against HGOS cell injury and cell death.
Type: cell-based
Description: Protection against redox stress can be evaluated in cell culture using high glutamate induced oxidative stress (HGOS) in mouse dopaminergic cell lines. The cytotoxic effect of glutamate is not due to excitotoxicity, as this cell line is devoid of inotropic glutamate receptors. Rather, the glutamate-induced toxicity of dopaminergic cells is associated with an inhibition of cystine transport which subsequently leads to depletion of intracellular glutathione (GSH) levels (Murphy T. H., et al. Neuron 2, 1547-1558, 1989), activation of neuronal 12-lipoxygenase (Li, Y. et al., Neuron 19, 453-463, 1997), increased ROS production (Tan S. et al., J. Cell Biol. 141, 1423-1432, 1998) and elevated intracellular Cat^2+ (Li, Y. et al., see supra). Some molecules were measured for their ability to protect cells against glutamate-induced stress and the assay is detailed in Examples.
This procedure was used to induce high glutamate-induced oxidative stress (HGOS) in a dopaminergic neuronal cell line. Using this assay the potency and efficacy of test articles against HGOS neuronal cell injury and cell death was established in a high throughput manner.
• Dopaminergic neuronal cell lines • DMEM-No Glucose (Life Technologies Cat #11966-025) • L-glutamine (Life Technologies Cat #25030-081) • L-glutamic acid, monosodium salt (Sigma Cat #G5889) • D-glucose (Sigma Cat #G-6151) • 10×HBSS buffer (pH 7.4) (950 ml Pyrogen-free water, 2.44 g/L MgCl2.6H20, 3.73 g/L KCl, 59.58 g/L Hepes, 58.44 g/L NaCl, 1.36 g/L KH2PO4, 1.91 g/L CaCl2.2H2O and pH to […] with HCl) • Cell Tracker Green fluorescent dye (Molecular Probes, Cat #2925). Prepare a 5NM solution in pre-warmed HBSS just prior to use. • Sterile 96-well plates precoated with poly-D-lysine (Corning Catalog #3665) • 96-well deep well mother plate, DyNA Block 1000 (VWR Catalog #40002-008) Neuronal Cells
The cells were seeded into 96-well plates at a density of 2000 per well and left to grow for 72 hours in a 33° C. incubator with 5% CO2 in air atmosphere. The passage number of the cells for each assay experiment were no later than p11 in order to minimize experimental variation.
All compounds were dissolved in DMEM-No Glu containing 1 mM glucose, 30 mM glutamate and 1× Pen/Strep. DMEM-No Glu with 1 mM glucose and 1× P/S was used as the negative control, DMEM-No Glucose with 1 mM glucose, […] glutamate was used as a positive control and 100 NM Glutathione was added to the positive control as a standard. All of the procedures for this involving the making and dilution of compounds were performed using aseptic conditions and with minimal light.
The plates were removed from the incubator and examined under the microscope for morphological appearance and density. Using an aseptic technique and an 8-channel aspirator the media was carefully removed from the cells and replaced with 200 μI of 1×HBSS. This was done as quickly as possible to prevent the cells drying out. The plates were then placed in the humidified 37° C. incubators of the Biomek 2000 Side Loader. Four plates were washed at a time so as to minimize the time that the cells were sitting in 1×HBSS prior to addition of the compound test solution. Experimental Setup
The Beckman Biomek workstations were used to load the compounds and controls from the mother plates onto the cell plates that were prewashed with HBSS under sterile conditions. The plates were incubated in the upper HTS incubator at 37° C. in 5% CO2 for exactly 16 hrs. The following day, using the Beckman Biomek workstations, the plates were removed from the incubator. Using Cell Tracker Addition, the compounds were removed from the plates, washed once with […] of pre-warmed 1×HBSS and then 100 μL of 5 μM Cell Tracker Green was added to each well. The plates were incubated at 37° C. for 30 min to allow the dye to enter the cell and be cleaved by the esterases. […]

SMILES | EC50
Cc1c(C)c2c(c(-c3ccccc3)c1O)CCC(C)(C)O2 [2,2,7,8-Tetramethyl-5-phenyl-chroman-6-ol] | < 5000 nM
Cc1c(C)c2c(c(-c3ccncc3)c1O)CCC(C)(C)O2 [2,2,7,8-Tetramethyl-5-pyridin-4-yl-chroman-6-ol] | < 5000 nM
Cc1c(C)c2c(c(-c3ccc(S(C)(=O)=O)cc3)c1O)CCC(C)(C)O2 [5-(4-Methanesulfonyl-phenyl)-2,2,7,8-tetramethyl-chroman-6-ol] | < 5000 nM
CCCC1=NN(C)C(=O)C1=Cc1c(O)c(C)c(C)c2c1CCC(C)(C)O2 [4-(6-Hydroxy-2,2,7,8-tetramethyl-chroman-5-ylmethylene)-2-methyl-5-propyl-2,4-dihydro-pyrazol-3-one] | < 5000 nM
Cc1c(C)c2c(c(-c3ccc(N(C)C)cc3)c1O)CCC(C)(C)O2 [5-(4-Dimethylamino-phenyl)-2,2,7,8-tetramethyl-chroman-6-ol] | < 5000 nM
COCOc1cc2c(c(C)c1C)OC(C)(CCC=C1SC(=O)NC1=O)CC2 (stereo not shown) [5-[3-(6-Methoxymethoxy-2,7,8-trimethyl-chroman-2-yl)-propylidene]-thiazolidine-2,4-dione] | < 5000 nM

Each compound was assayed against T1, human recombinant 5-lipoxygenase (Homo sapiens, UniProt P09917) (assay: 5-Lipoxygenase enzyme assay). Conditions: 70 μM arachidonic acid, pH 7.4, 10 minute incubation; read-out: IC50, inhibition of 5-Lipoxygenase.
T1 construct: purchased Cayman 60402
T1 sequence (P09917 1-674): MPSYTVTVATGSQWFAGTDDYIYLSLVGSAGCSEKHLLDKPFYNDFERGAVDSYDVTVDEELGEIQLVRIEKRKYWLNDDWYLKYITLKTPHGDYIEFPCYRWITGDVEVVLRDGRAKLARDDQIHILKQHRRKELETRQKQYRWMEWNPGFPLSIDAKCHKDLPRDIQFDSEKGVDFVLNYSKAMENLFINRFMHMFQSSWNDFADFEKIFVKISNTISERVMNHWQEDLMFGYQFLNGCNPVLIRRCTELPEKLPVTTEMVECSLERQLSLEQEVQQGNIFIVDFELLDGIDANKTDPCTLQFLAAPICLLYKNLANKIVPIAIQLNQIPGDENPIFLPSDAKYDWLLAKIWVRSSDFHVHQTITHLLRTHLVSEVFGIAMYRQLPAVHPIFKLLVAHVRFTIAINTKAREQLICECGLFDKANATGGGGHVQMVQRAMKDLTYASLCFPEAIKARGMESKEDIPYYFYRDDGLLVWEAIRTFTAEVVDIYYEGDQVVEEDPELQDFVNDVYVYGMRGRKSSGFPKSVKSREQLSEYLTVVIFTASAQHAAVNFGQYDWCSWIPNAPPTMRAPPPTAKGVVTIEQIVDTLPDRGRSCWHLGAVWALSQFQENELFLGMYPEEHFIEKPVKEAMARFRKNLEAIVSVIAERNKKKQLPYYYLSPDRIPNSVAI
Type: biochemical
Description: (§1) In vitro evaluation of the ability of a composition to inhibit the enzymes 5-lipoxygenase, 15-lipoxygenase, or 12/15 lipoxygenase as described in Walidge, N. B. et al Anal. Biochem., 231: 354-358 (1995) using a high throughput colorimetric method; as well as in vitro evaluation of inhibiting LTB4 is described in Examples.
This procedure was used for measuring the enzymatic activity of human recombinant 5-lipoxygenase using a colorimetric method based on the ferric oxidation of xylenol orange.
(§2) • 96 well flat bottom microfilter plates (VWR, Catalog #62402-933 9295) • Lipoxygenase screening assay buffer (Cayman, Catalog #760710) • Human recombinant 5-lipoxygenase (Cayman, Catalog #60402) • Arachidonic Acid (Sigma, Catalog #A3555) • Xylenol orange tetrasodium salt (Aldrich, Catalog #227854) • Iron (II) sulfate heptahydrate (Sigma, Catalog #F7002) • Sulfuric acid (95-98%) [18M]—Methanol Procedure
(§3) Human recombinant 5-lipoxygenase (Cayman Cat #60402) was used in this assay. The test compound and/or vehicle was added to 0.51-1 5-lipoxygenase in 50 mM Tris-HCl buffer, pH 7.4. The reaction was initiated by addition of 70 μM arachidonic acid in Tris-HCl buffer, pH 7.4, and terminated after a 10 minute incubation at room temperature by addition of FOX reagent (25 mM sulphuric acid, 100 μM xylenol orange, 100 μM iron (II) sulphate, methanol:water 9:1). The yellow color of acidified xylenol orange was converted to a blue color by the lipid hydroperoxide-mediated oxidation of Fe 2+ ions and the interaction of the resulting Fe 3+ ions with the dye. The complex was allowed to form during a 1 hour incubation at room temperature with shaking. Absorbance of the Fe 3+ complex was then measured at […] using a spectrophotometer.
(§4) Negative controls contained enzyme during the incubation step but substrate was not added until after the FOX reagent.
Compounds were screened at 5 concentrations in triplicate starting at 10 μM

IC50 | SMILES
< 1000 nM | Cc1c(C)c2c(c(-c3ccc(Cl)cc3)c1O)CCC(C)(C)O2 [5-(4-Chloro-phenyl)-2,2,7,8-tetramethyl-chroman-6-ol]
< 1000 nM | Cc1c(C)c2c(c(C)c1O)CCC(C)(C=C(Cl)Cl)O2 (stereo not shown) [2-(2,2-Dichloro-vinyl)-2,5,7,8-tetramethyl-chroman-6-ol]
< 1000 nM | Cc1c(C)c2c(c(-c3ccc(C(C)(C)C)cc3)c1O)CCC(C)(C)O2 [5-(4-tert-Butyl-phenyl)-2,2,7,8-tetramethyl-chroman-6-ol]
< 1000 nM | Cc1c(O)cc(-c2c(O)c(C)c(C)c3c2CCC(C)(C)O3)c(O)c1C [5-(6-Hydroxy-2,2,7,8-tetramethyl-chroman-5-yl)-2,3-dimethyl-benzene-1,4-diol]
< 1000 nM | COc1cc(-c2c(O)c(C)c(C)c3c2CCC(C)(C)O3)cc(OC)c1OC [2,2,7,8-Tetramethyl-5-(3,4,5-trimethoxy-phenyl)-chroman-6-ol]

These compounds were tested against T2, porcine leukocyte 12/15-lipoxygenase (Sus scrofa, UniProt P16469) (assay: 12/15-Lipoxygenase enzyme assay). Conditions: 70 μM arachidonic acid, pH 7.4, 10 minute incubation; read-out: IC50, inhibition of 12/15-Lipoxygenase.
T2 construct: purchased Cayman 60300
T2 sequence (P16469 1-663): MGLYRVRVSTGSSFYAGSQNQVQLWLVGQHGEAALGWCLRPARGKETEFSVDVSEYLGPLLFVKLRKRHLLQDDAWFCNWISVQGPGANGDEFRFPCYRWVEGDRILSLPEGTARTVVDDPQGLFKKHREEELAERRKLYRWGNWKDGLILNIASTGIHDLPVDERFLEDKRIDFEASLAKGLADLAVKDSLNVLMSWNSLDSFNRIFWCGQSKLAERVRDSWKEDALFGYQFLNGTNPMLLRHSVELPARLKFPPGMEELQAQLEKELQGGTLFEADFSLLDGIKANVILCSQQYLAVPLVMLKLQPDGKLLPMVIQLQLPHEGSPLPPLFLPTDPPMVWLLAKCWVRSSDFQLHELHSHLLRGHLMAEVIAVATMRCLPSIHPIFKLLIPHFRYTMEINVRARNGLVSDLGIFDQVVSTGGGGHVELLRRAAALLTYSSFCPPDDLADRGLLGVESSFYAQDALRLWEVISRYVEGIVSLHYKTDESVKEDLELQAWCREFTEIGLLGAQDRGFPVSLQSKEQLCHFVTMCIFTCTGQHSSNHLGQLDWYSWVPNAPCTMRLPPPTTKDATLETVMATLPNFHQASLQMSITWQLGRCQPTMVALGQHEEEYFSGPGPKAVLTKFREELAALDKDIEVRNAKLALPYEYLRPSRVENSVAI
Type: biochemical
Description: as §1
This procedure was used for measuring the enzymatic activity of porcine leukocyte 12/15-lipoxygenase using a colorimetric method based on the ferric oxidation of xylenol orange.
as §2, with “Porcine leukocyte 12/15-lipoxygenase” for “Human recombinant 5-lipoxygenase”, “#60300)” for “#60402)”, “[18M] • Methanol” for “[18M]—Methanol”
as §3, with “Porcine Leukocyte 12/15-lipoxygenase” for “Human recombinant 5-lipoxygenase”, “#60300)” for “#60402)”, “Test” for “The test”, “1.3 U 12/15-lipoxygenase” for “0.51-1 5-lipoxygenase”
as §4
Compounds are screened at 5 concentrations in triplicate starting at 10 μM

IC50 | SMILES
< 1000 nM | Cc1cc(C2(C)CCc3c(C)c(O)c(C)c(Cl)c3O2)c(C)s1 (stereo not shown) [8-Chloro-2-(2,5-dimethyl-thiophen-3-yl)-2,5,7-trimethyl-chroman-6-ol]
< 1000 nM | CC(=CCc1c(O)c(C)c(C)c2c1CCC(C)(C)O2)CCCl [5-(5-Chloro-3-methyl-pent-2-enyl)-2,2,7,8-tetramethyl-chroman-6-ol]
< 1000 nM | Cc1cc2c(c(C)c1O)CCC(CCCCl)(c1cccs1)O2 (stereo not shown) [2-(3-Chloro-propyl)-5,7-dimethyl-2-thiophen-2-yl-chroman-6-ol]
< 1000 nM | Cc1c(C)c2c(c(C)c1O)CCC(C)(C=C(Cl)Cl)O2 (stereo not shown) [2-(2,2-Dichloro-vinyl)-2,5,7,8-tetramethyl-chroman-6-ol]
< 1000 nM | Cc1c(C)c2c(c(Cl)c1O)CCC(C)(c1cccs1)O2 (stereo not shown) [5-Chloro-2,7,8-trimethyl-2-thiophen-2-yl-chroman-6-ol]
